Measured values from patent publication US9144239B2, “Macrocyclic picolinamides as fungicides” (DOW AGROSCIENCES LLC, priority 2012, dated 2015).
Where two headings read alike, the source gives them in different places.

Legend:
Format in all cases: in vivo
[1] = test system: Puccinia triticina; synonym: Puccinia recondita f. sp. tritici; experiment: Fungicidal activity: wheat brown rust (PUCCRT), wheat seedlings; details: 100 ppm, wheat
Method in brief: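 Wheat (Yuma) seedlings at first-leaf stage, inoculated with Puccinia triticina spores before or after treatment, held overnight in dark dew room at 22° C, 100% RH, then greenhouse at 24° C. Acetone solutions diluted with nine volumes water containing 110 ppm Triton X-100, sprayed to run-off. Percent disease control derived from severity (0–100%) relative to untreated plants.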

[2] = test system: Leptosphaeria nodorum; experiment: Fungicidal activity: wheat glume blotch (LEPTNO); details: Parastagonospora nodorum, 24 h, 1 Day Protectant, read-out: Disease Control LEPTNO 1 DP
Protocol: Technical grades of materials were dissolved in acetone, which were then mixed with nine volumes of water containing 110 ppm Triton X-100. The fungicide solutions were applied onto wheat seedlings using an automated booth sprayer to run-off. All sprayed plants were allowed to air dry prior to further handling. Wheat plants (variety Yuma) were grown from seed in a greenhouse in 50% mineral soil/50% soil-less Metro mix until the first leaf was fully emerged, with 7-10 seedlings per pot. These plants were inoculated with an aqueous spore suspension of Septoria tritici either prior to or after fungicide treatments. After inoculation the plants were kept in 100% relative humidity (one day in a dark dew chamber followed by two to three days in a lighted dew chamber at 20° C.) to permit spores to germinate and infect the leaf. The plants were then transferred to a greenhouse set at 20° C. for disease to develop. When disease symptoms were fully expressed on the 1st leaves of untreated plants, infection levels were assessed on a scale of 0 to 100 percent disease severity. Percent disease control was calculated using the ratio of disease severity on treated plants relative to untreated plants. Evaluation of Fungicidal Activity: Wheat Glume Blotch (Leptosphaeria nodorum; Bayer Code […]) Wheat plants (variety Yuma) were grown from seed in a greenhouse in 50% mineral soil/50% soil-less Metro mix until the first leaf was fully emerged, with 7-10 seedlings per pot. These plants were inoculated with an aqueous spore suspension of Leptosphaeria nodorum 24 hr after fungicide treatments. After inoculation the plants were kept in 100% relative humidity (one day in a dark dew chamber followed by two days in a lighted dew chamber at 20° C.) to permit spores to germinate and infect the leaf. The plants were then transferred to a greenhouse set at 20° C. for disease to develop. Fungicide formulation, application and disease assessment followed the procedures as described in the Example A.

[3] = test system: Cercospora beticola; experiment: Fungicidal activity: leaf spot of sugar beets (CERCBE); details: 24 h, 1 Day Protectant, sugar beet, read-out: Disease Control CERCBE 1DP
Protocol: Technical grades of materials were dissolved in acetone, which were then mixed with nine volumes of water containing 110 ppm Triton X-100. The fungicide solutions were applied onto wheat seedlings using an automated booth sprayer to run-off. All sprayed plants were allowed to air dry prior to further handling. Wheat plants (variety Yuma) were grown from seed in a greenhouse in 50% mineral soil/50% soil-less Metro mix until the first leaf was fully emerged, with 7-10 seedlings per pot. These plants were inoculated with an aqueous spore suspension of Septoria tritici either prior to or after fungicide treatments. After inoculation the plants were kept in 100% relative humidity (one day in a dark dew chamber followed by two to three days in a lighted dew chamber at 20° C.) to permit spores to germinate and infect the leaf. The plants were then transferred to a greenhouse set at 20° C. for disease to develop. When disease symptoms were fully expressed on the 1st leaves of untreated plants, infection levels were assessed on a scale of 0 to 100 percent disease severity. Percent disease control was calculated using the ratio of disease severity on treated plants relative to untreated plants. Evaluation of Fungicidal Activity: Leaf Spot of Sugar Beets (Cercospora beticola; Bayer Code CERCBE) Sugar beet plants (variety HH88) were grown in soil-less Metro mix and trimmed regularly to maintain a uniform plant size prior to test. Plants were inoculated with a spore suspension 24 hr after fungicide treatments. Inoculated plants were kept in a dew chamber at 22° C. for 48 hr then incubated in a greenhouse set at 24° C. under a clear plastic hood with bottom ventilation until disease symptoms were fully expressed. Fungicide formulation, application and disease assessment on the sprayed leaves followed the procedures as described in the Example A.

[4] = test system: Mycosphaerella graminicola; anamorph: Septoria tritici; experiment: Fungicidal activity: leaf blotch of wheat (SEPTTR), wheat seedlings; details: Zymoseptoria tritici, 100 ppm, wheat
Method in brief: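 Percent control derives from disease severity on treated versus untreated first leaves, rated 0–100% when symptoms were fully expressed on untreated plants. Yuma seedlings were inoculated with S. tritici spores either before or after spraying to run-off. The spray was acetone solution diluted 1:9 in water with 110 ppm Triton X-100. Infection took place in 100% RH dew chambers, then a 20 °C greenhouse.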

[5] = test system: Blumeria graminis f.sp. hordei; synonym: Erysiphe graminis f.sp. hordei; experiment: Fungicidal activity: barley powdery mildew (ERYSGH); details: 24 h, 1 Day Protectant, read-out: Disease Control ERYSGH 1DP
Protocol: Technical grades of materials were dissolved in acetone, which were then mixed with nine volumes of water containing 110 ppm Triton X-100. The fungicide solutions were applied onto wheat seedlings using an automated booth sprayer to run-off. All sprayed plants were allowed to air dry prior to further handling. Wheat plants (variety Yuma) were grown from seed in a greenhouse in 50% mineral soil/50% soil-less Metro mix until the first leaf was fully emerged, with 7-10 seedlings per pot. These plants were inoculated with an aqueous spore suspension of Septoria tritici either prior to or after fungicide treatments. After inoculation the plants were kept in 100% relative humidity (one day in a dark dew chamber followed by two to three days in a lighted dew chamber at 20° C.) to permit spores to germinate and infect the leaf. The plants were then transferred to a greenhouse set at 20° C. for disease to develop. When disease symptoms were fully expressed on the 1st leaves of untreated plants, infection levels were assessed on a scale of 0 to 100 percent disease severity. Percent disease control was calculated using the ratio of disease severity on treated plants relative to untreated plants. Evaluation of Fungicidal Activity: Barley Powdery Mildew (Blumeria graminis f.sp. hordei; Synonym: Erysiphe graminis f.sp. hordei; Bayer Code […]) Barley seedlings (variety Harrington) were propagated in soil-less Metro mix, with each pot having 8 to 12 plants, and used in the test when first leaf was fully emerged. Test plants were inoculated by dusting with infected stock plants 24 hr after fungicide treatments. After inoculation the plants were kept in a greenhouse set at 20° C. for disease to develop. Fungicide formulation, application and disease assessment on the sprayed leaves followed the procedures as described in the Example A.

Measured: pest or weed control at 100 ppm

COc1ccnc(C(=O)N[C@H]2COC[C@H](Oc3ccc(F)cc3)[C@@H](OCC(C)C)[C@H](C)OC2=O)c1OCOC(C)=O [Compound 228]
80 to 100%: [1]; 24 h, 1 Day Protectant, read-out: Disease Control PUCCRT 1DP | [1]; 72 h, 3 Day Curative, read-out: Disease Control PUCCRT 3DC | [2] | [4]; 24 h, 1 Day Protectant, read-out: Disease Control SEPTTR 1DP | [4]; 72 h, 3 Day Curative, read-out: Disease Control SEPTTR 3DC
0 to 80%: [3] | [5]
